Results as given in US8299074B2, “P38 MAP kinase inhibitors” (RespiVert Ltd., priority 2008, dated 2012).
pEC50, pIC50: −log10 of the molar value. Like-named read-outs stand apart in the source and are kept apart here.

Columns and labels:
[1] = biological target: T1, p38 MAPK alpha (MAPK14) (Homo sapiens, UniProt Q16539); experiment: Enzyme inhibition assay, p38 MAPK alpha (FRET, Z-LYTE, via MAPKAP-K2); type: biochemical; conditions: read-out: Enzyme p38α IC50
T1 construct: purchased Invitrogen
T1 sequence (Q16539 whole entry): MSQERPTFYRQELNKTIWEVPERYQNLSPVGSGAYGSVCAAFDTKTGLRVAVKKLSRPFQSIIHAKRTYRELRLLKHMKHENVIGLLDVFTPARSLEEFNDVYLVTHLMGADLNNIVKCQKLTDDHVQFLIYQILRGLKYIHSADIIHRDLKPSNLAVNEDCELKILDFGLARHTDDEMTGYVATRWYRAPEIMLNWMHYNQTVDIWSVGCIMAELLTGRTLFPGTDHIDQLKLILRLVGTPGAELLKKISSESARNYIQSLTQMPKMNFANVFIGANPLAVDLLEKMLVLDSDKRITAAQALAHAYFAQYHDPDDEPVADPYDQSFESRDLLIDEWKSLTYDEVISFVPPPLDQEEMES

[2] = test system: THP-1 cells; experiment: LPS-induced TNF alpha release in THP-1 cells; type: cell-based; conditions: Homo sapiens
Method: LPS-Induced TNF Alpha Release in THP-1 Cells: Potency […] Coli; O111:B4, Sigma) for 4 hr and the supernatant collected for determination of TNFα concentration by sandwich ELISA (Duo-set, R&D systems). The inhibition of TNFα production was calculated at each concentration by comparison with vehicle control.

[3] = test system: U937 cells; experiment: LPS-induced TNF alpha release in U937 cells; type: cell-based
Method: (§1) LPS-Induced TNF Alpha/IL-8 Release in U937 Cells: Potency U937 cells, human monocytic cell line, were differentiated to macrophage-type cells by incubation with phorbol myristate acetate (PMA; 100 ng/ml) for 48 to 72 hours. Cells were pre-incubated with final concentrations of compound for 2 hrs. […] Coli: O111:B4, Sigma) for 4 hrs, and the supernatant collected for determination of TNFα and IL-8 concentration by sandwich ELISA (Duo-set, R&D systems). […] The inhibition of IL-8 production was calculated at each concentration of test compound by comparison with vehicle control.

[4] = test system: U937 cells; experiment: LPS-induced IL-8 release in U937 cells; type: cell-based; conditions: Homo sapiens, read-out: DU937 (LPS) IL-8 IC50
Method: as §1

[5] = test system: BEAS2B cells; experiment: Poly I:C-induced ICAM-1 induction in BEAS2B cells; type: cell-based; conditions: Homo sapiens, BEAS-2B, read-out: BEAS2B (polyIC) ICAM1 IC50
Method: Poly I:C-Induced ICAM-1 Induction in BEAS2B Cells: Potency Poly I:C (1 ug/ml) (Invivogen Ltd., San Diego, Calif.) was transfected into BEAS2B cells (human bronchial epithelial cells, ATCC) with Oligofectamine (Invitrogen, Carlsbad, Calif.). Cells were pre-incubated with final concentrations of compound for 2 hrs. The level of ICAM1 expression on the cell surface was determined by cell-based ELISA. Briefly, at 18 hrs after poly I:C transfection, cells were fixed with 4% formaldehyde in PBS. After quenching endogenous peroxidase by adding 0.1% sodium azide and 1% hydrogen peroxide, cells were washed with wash-buffer (0.1% Tween in PBS: PBS-Tween). After blocking the wells with 5% milk in PBS-Tween for 1 hr, the cells were incubated with anti-human ICAM-1 antibody (Cell Signaling Technology, Danvers, Mass.) in 1% BSA PBS overnight at 4° C. Cells were washed with PBS-Tween and incubated with the secondary antibody (HRP-conjugated anti-rabbit IgG, Dako Ltd., Glostrup, Denmark). The ICAM-1 signal was detected by adding substrate and reading at 450 nm with a reference wavelength of 655 nm using a spectrophotometer. […] The measured OD 450-655 readings were corrected for cell number by dividing with the OD595 reading in each well.

[6] = test system: Differentiated U937 cells; experiment: MTT assay (cell viability); type: cell-based, human
Method: MTT Assay Differentiated U937 cells were pre-incubated with compound for 4 hrs in 5% FCS or 10% FCS for 24 hrs. […] After 1 hr incubation, the media were removed, 200 ul of DMSO added to each well and the plates were shaken lightly for 1 h prior to reading the absorbance at 550 nm. The percentage loss of cell viability was calculated for each well relative to vehicle (0.5% DMSO)-treatment. Consequently an apparent increase in cell viability for drug treatment relative to vehicle is tabulated as a negative percentage.

[7] = THP-1, Table 3, read-out: THP-1 (LPS) TNFα IC50
[8] = Homo sapiens; read-out: DU937 (LPS) TNFα REC50
[9] = Table 3, first MTT column, loss of cell viability at 1 μg/ml
[10] = Table 3, second MTT column, loss of cell viability at 1 μg/ml
[11] = THP-1, Table 2, read-out: THP-1 (LPS) TNFα IC50
[12] = Table 2, loss of cell viability, test conducted at 10 μg/ml
[13] = Table 2, loss of cell viability at 1 μg/ml
[14] = THP-1, read-out: THP-1 (LPS) TNFα IC50
[15] = Homo sapiens, read-out: DU937 (LPS) TNFα REC50

Cc1ccc(-n2nc(C(C)(C)C)cc2NC(=O)Nc2ccc(Oc3ccnc(NC(=O)NCCCCN4CCOCC4)c3)c3ccccc23)cc1 [Example 47, N-(4-(Morpholin-4-yl)butyl)-N′-4-(4-(3-(3-tert-butyl-1-p-tolyl-1H-pyrazol-5-yl)ureido)naphthalen-1-yloxy)pyridin-2-ylurea]
pIC50 ([1]; Table 3): > 8.00
pIC50 [2, 7]: > 8.00
pEC50 [3, 8]: > 8.00
pIC50 ([4]; Table 3): > 8.00
pIC50 ([5]; Table 3): > 8.00
DU937 (cell viability) MTT assay 4 h [6, 9]: − (<=30%)
DU937 (cell viability) MTT assay 4 h [6, 10]: − (<=30%)

Cc1ccc(-n2nc(C(C)(C)C)cc2NC(=O)Nc2ccc(Oc3ccnc(NC(=O)CN(C)C)c3)c3ccccc23)cc1 [Example 12, N-(4-(4-(3-(3-tert-Butyl-1-p-tolyl-1H-pyrazol-5-yl)ureido)naphthalen-1-yloxy)pyridin-2-yl)-(dimethylamino)acetamide]
pIC50 ([1]; Table 2): > 8.00
pIC50 [2, 11]: > 8.00
pEC50 [3, 8]: > 8.00
pIC50 ([4]; Table 2): > 8.00
pIC50 ([5]; Table 2): > 5.30
DU937 (cell viability) MTT assay 4 h [6, 12]: −^$ (<=30%)
DU937 (cell viability) MTT assay 24 h [6, 12]: +^$ (>30%)

COCC(=O)Nc1cc(Oc2ccc(NC(=O)Nc3cc(C(C)(C)C)nn3-c3ccc(C)cc3)c(C)c2C)ccn1 [Example 26, N-(4-(4-(3-(3-tert-Butyl-1-p-tolyl-1H-pyrazol-5-yl)ureido)-2,3-dimethylphenoxy)pyridin-2-yl)-2-methoxyacetamide]
pIC50 ([1]; Table 2): > 5.30
pIC50 [2, 11]: > 8.00
pEC50 [3, 8]: > 8.00
pIC50 ([4]; Table 2): > 8.00
pIC50 ([5]; Table 2): > 8.00
DU937 (cell viability) MTT assay 4 h [6, 13]: − (<=30%)
DU937 (cell viability) MTT assay 24 h [6, 13]: + (>30%)

COCCNC(=O)Nc1cc(Oc2ccc(NC(=O)Nc3cc(C(C)(C)C)nn3-c3ccc(C)cc3)c3ccccc23)ccn1 [Example 34, 1-(3-(tert-Butyl)-1-(p-tolyl)-1H-pyrazol-5-yl)-3-(4-((2-(3-(2-methoxyethyl)ureido)pyridin-4-yl)oxy)naphthalen-1-yl)urea]
pIC50 ([1]; Table 3): > 5.30
pIC50 [2, 7]: > 8.00
pEC50 [3, 8]: > 5.30
pIC50 ([4]; Table 3): > 5.30
pIC50 ([5]; Table 3): > 5.30
DU937 (cell viability) MTT assay 4 h ([6]; Table 3, first MTT column, loss of cell viability, test conducted at 10 μg/ml): −^ ^$ (<=30%)
DU937 (cell viability) MTT assay 4 h ([6]; Table 3, second MTT column, loss of cell viability, test conducted at 10 μg/ml): +^$ (>30%)

COCCNCC(=O)Nc1cc(Oc2ccc(NC(=O)Nc3cc(C(C)(C)C)nn3-c3ccc(C)cc3)c3ccccc23)ccn1 [Example 13, N-(4-(4-(3-(3-tert-Butyl-1-p-tolyl-1H-pyrazol-5-yl)ureido)naphthalen-1-yloxy)pyridin-2-yl)-2-(2-methoxyethylamino)acetamide]
pIC50 ([1]; Table 2): > 8.00
pIC50 [2, 11]: > 8.00
pEC50 [3, 8]: > 8.00
pIC50 ([4]; Table 2): > 8.00
pIC50 ([5]; Table 2): > 8.00
DU937 (cell viability) MTT assay 4 h [6, 12]: −^$ (<=30%)
DU937 (cell viability) MTT assay 24 h [6, 12]: +^$ (>30%)

Cc1ccc(-n2nc(C(C)(C)C)cc2NC(=O)Nc2ccc(Oc3ccnc(NC(=O)NCC(=O)N4CCN(C)CC4)c3)c3ccccc23)cc1 [Example 61, 1-(2-(3-(4-(4-(3-(3-tert-Butyl-1-p-tolyl-1H-pyrazol-5-yl)ureido)naphthalen-1-yloxy)pyridin-2-yl)ureido)acetyl)-4-methylpiperazine]
pIC50 ([1]; Table 3): > 8.00
pIC50 [2, 7]: > 8.00
pEC50 [3, 8]: > 8.00
pIC50 ([4]; Table 3): > 8.00
pIC50 ([5]; Table 3): > 8.00
DU937 (cell viability) MTT assay 4 h [6, 9]: − (<=30%)
DU937 (cell viability) MTT assay 4 h [6, 10]: − (<=30%)

CCc1cc(NC(=O)Nc2ccc(Oc3ccnc(NC(=O)COC)c3)c3ccccc23)n(-c2ccc(C)cc2)n1 [Example 7, N-(4-(4-(3-(3-Ethyl-1-p-tolyl-1H-pyrazol-5-yl)ureido)naphthalen-1-yloxy)pyridin-2-yl)-2-methoxyacetamide]
pIC50 ([1]; Table 2): > 8.00
pIC50 [2, 11]: > 8.00
pEC50 [3, 8]: > 8.00
pIC50 ([4]; Table 2): > 8.00
pIC50 ([5]; Table 2): > 5.30
DU937 (cell viability) MTT assay 4 h [6, 13]: − (<=30%)
DU937 (cell viability) MTT assay 24 h [6, 13]: − (<=30%)

CNC(=O)Nc1nccc(Oc2ccc(NC(=O)Nc3cc(C(C)(C)C)nn3-c3ccc(C)cc3)c3ccccc23)n1 [Example 67, 1-Methyl-3-(4-(4-(3-(3-tert-butyl-1-p-tolyl-1H-pyrazol-5-yl)ureido)naphthalen-1-yloxy)pyrimidin-2-yl)urea]
pIC50 ([1]; Table 1): > 5.30
pIC50 ([2]; THP-1, Table 1, read-out: THP-1 (LPS) TNFα IC50): > 8.00
pEC50 [3, 8]: > 8.00
pIC50 ([4]; Table 1): > 8.00
pIC50 ([5]; Table 1): > 5.30
DU937 (cell viability) MTT assay 4 h ([6]; Table 1, MTT, loss of cell viability at 1 μg/ml): − (<=30%)
DU937 (cell viability) MTT assay 4 h ([6]; Table 1, first MTT column, loss of cell viability at 1 μg/ml): − (<=30%)

Cc1ccc(-n2nc(C(C)(C)C)cc2NC(=O)Nc2ccc(Oc3ccnc(NC(=O)NCCCn4ccnc4)c3)c3ccccc23)cc1 [Example 52, N-(3-(Imidazol-1-yl)propyl)-N′-4-(4-(3-(3-tert-butyl-1-p-tolyl-1H-pyrazol-5-yl)ureido)naphthalen-1-yloxy)pyridin-2-ylurea]
pIC50 ([1]; Table 3): > 5.30
pIC50 [2, 7]: > 8.00
pEC50 [3, 8]: > 8.00
pIC50 ([4]; Table 3): > 8.00
pIC50 ([5]; Table 3): > 8.00
DU937 (cell viability) MTT assay 4 h [6, 9]: − (<=30%)
DU937 (cell viability) MTT assay 4 h [6, 10]: − (<=30%)

Cc1ccc(-n2nc(C(C)(C)C)cc2NC(=O)Nc2ccc(Oc3ccnc(NC(=O)N(C)C)c3)c3ccccc23)cc1 [Example 44, 3-(4-((4-(3-(3-(tert-Butyl)-1-(p-tolyl)-1H-pyrazol-5-yl)ureido)naphthalen-1-yl)oxy)pyridin-2-yl)-1,1-dimethylurea]
pIC50 ([1]; Table 3): > 5.30
pIC50 [2, 14]: > 8.00
pEC50 [3, 15]: > 8.00
pIC50 [4]: > 8.00
pIC50 [5]: > 8.00
DU937 (cell viability) MTT assay 4 h [6, 9]: − (<=30%)
DU937 (cell viability) MTT assay 4 h [6, 10]: − (<=30%)

Cc1ccc(-n2nc(C(C)(C)C)cc2NC(=O)Nc2ccc(Oc3ccnc(NC(=O)NC4CCN(C)CC4)c3)c3ccccc23)cc1 [Example 50, N-(1-Methyl)piperidin-4-yl-N′-4-(4-(3-(3-tert-butyl-1-p-tolyl-1H-pyrazol-5-yl)ureido)naphthalen-1-yloxy)pyridin-2-ylurea]
pIC50 ([1]; Table 3): > 8.00
pIC50 [2, 14]: > 8.00
pEC50 [3, 15]: > 8.00
pIC50 [4]: > 8.00
pIC50 [5]: > 8.00
DU937 (cell viability) MTT assay 4 h [6, 9]: − (<=30%)
DU937 (cell viability) MTT assay 4 h [6, 10]: + (>30%)

Cc1ccc(-n2nc(C(C)(C)C)cc2NC(=O)Nc2ccc(Oc3ccnc(NC(=O)N4CCCC4)c3)c3ccccc23)cc1 [Example 55, N-(4-(4-(3-(3-tert-Butyl-1-p-tolyl-1H-pyrazol-5-yl)ureido)naphthalen-1-yloxy)pyridin-2-yl)pyrrolidine-1-carboxamide]
pIC50 ([1]; Table 3): > 8.00
pIC50 [2, 7]: > 8.00
pEC50 [3, 8]: > 8.00
pIC50 ([4]; Table 3): > 8.00
pIC50 ([5]; Table 3): > 8.00
DU937 (cell viability) MTT assay 4 h [6, 9]: − (<=30%)
DU937 (cell viability) MTT assay 4 h [6, 10]: − (<=30%)

COCCNC(=O)CNC(=O)Nc1cc(Oc2ccc(NC(=O)Nc3cc(C(C)(C)C)nn3-c3ccc(C)cc3)c3ccccc23)ccn1 [Example 62]
pIC50 ([1]; Table 3): > 8.00
pIC50 [2, 7]: > 8.00
pEC50 [3, 8]: > 8.00
pIC50 ([4]; Table 3): > 8.00
pIC50 ([5]; Table 3): > 8.00
DU937 (cell viability) MTT assay 4 h [6, 9]: − (<=30%)
DU937 (cell viability) MTT assay 4 h [6, 10]: − (<=30%)
